# Assay results taken from the supplement of paper PMC10307832.
# How the values were obtained:
# Test in all cases: relative viability (nuclei count vs DMSO), 5 days (fraction); higher = more cells survive
# A-427 = system: A-427
# Procedure, shortened: (§1)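 Medians of duplicate plates are given as relative viability. That measure is the nuclei count in treated wells divided by the count in vehicle wells. Counts were taken on 4× images of lung cancer cell lines in 1536-well plates, 5 days after pin-tool dosing the day after seeding with one drug alone or a fixed anchor-drug dose plus five library-drug doses (not always all listed) in √10 steps.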
# COR-L 105 = system: COR-L 105
# Procedure, shortened: as §1
# ChaGo-K-1 = system: ChaGo-K-1
# Procedure, shortened: as §1
# EKVX = system: EKVX
# Procedure, shortened: as §1
# EMC-BAC-2 = system: EMC-BAC-2
# Procedure, shortened: as §1
# EPLC-272H = system: EPLC-272H
# Procedure, shortened: as §1
# HARA = system: HARA
# Procedure, shortened: as §1
# HCC-44 = system: HCC-44
# Procedure, shortened: as §1
# LK-2 = system: LK-2
# Procedure, shortened: as §1
# LU99A = system: LU99A
# Procedure, shortened: as §1
# NCI-H1650 = system: NCI-H1650
# Procedure, shortened: as §1
# NCI-H1734 = system: NCI-H1734
# Procedure, shortened: as §1
# NCI-H1755 = system: NCI-H1755
# Procedure, shortened: as §1
# NCI-H1792 = system: NCI-H1792
# Procedure, shortened: as §1
# NCI-H1993 = system: NCI-H1993
# Procedure, shortened: as §1
# NCI-H2405 = system: NCI-H2405
# Procedure, shortened: as §1
# NCI-H358 = system: NCI-H358
# Procedure, shortened: as §1
# NCI-H460 = system: NCI-H460
# Procedure, shortened: as §1
# NCI-H596 = system: NCI-H596
# Procedure, shortened: as §1
# NCI-H647 = system: NCI-H647
# Procedure, shortened: as §1
# RERF-LC-KJ = system: RERF-LC-KJ
# Procedure, shortened: as §1
smiles,measurement,setting,value
CCNC(=O)c1noc(-c2cc(C(C)C)c(O)cc2O)c1-c1ccc(CN2CCOCC2)cc1 [Luminespib] + CS(=O)(=O)N1CCN(Cc2cc3nc(-c4cccc5[nH]ncc45)nc(N4CCOCC4)c3s2)CC1 [Pictilisib] (partner 1 µM),relative viability,A-427; first compound 0.002 µM,0.62
same,relative viability,A-427; first compound 0.006325 µM,0.634
same,relative viability,A-427; first compound 0.02 µM,0.441
same,relative viability,A-427; first compound 0.06325 µM,0.733
same,relative viability,A-427; first compound 0.2 µM,0.35
same,relative viability,COR-L 105; first compound 0.002 µM,0.386
same,relative viability,COR-L 105; first compound 0.006325 µM,0.488
same,relative viability,COR-L 105; first compound 0.02 µM,0.248
same,relative viability,COR-L 105; first compound 0.06325 µM,0.223
same,relative viability,COR-L 105; first compound 0.2 µM,0.254
same,relative viability,ChaGo-K-1; first compound 0.002 µM,0.782
same,relative viability,ChaGo-K-1; first compound 0.02 µM,0.501
same,relative viability,ChaGo-K-1; first compound 0.06325 µM,0.345
same,relative viability,ChaGo-K-1; first compound 0.2 µM,0.362
same,relative viability,EKVX; first compound 0.002 µM,0.392
same,relative viability,EKVX; first compound 0.006325 µM,0.46
same,relative viability,EKVX; first compound 0.02 µM,0.229
same,relative viability,EKVX; first compound 0.06325 µM,0.226
same,relative viability,EKVX; first compound 0.2 µM,0.0934
same,relative viability,EMC-BAC-2; first compound 0.002 µM,0.54
same,relative viability,EMC-BAC-2; first compound 0.006325 µM,0.511
same,relative viability,EMC-BAC-2; first compound 0.02 µM,0.417
same,relative viability,EMC-BAC-2; first compound 0.06325 µM,0.573
same,relative viability,EMC-BAC-2; first compound 0.2 µM,0.163
same,relative viability,EPLC-272H; first compound 0.006325 µM,0.267
same,relative viability,EPLC-272H; first compound 0.02 µM,0.254
same,relative viability,EPLC-272H; first compound 0.06325 µM,0.197
same,relative viability,EPLC-272H; first compound 0.2 µM,0.148
same,relative viability,HARA; first compound 0.002 µM,0.295
same,relative viability,HARA; first compound 0.006325 µM,0.396
same,relative viability,HARA; first compound 0.02 µM,0.174
same,relative viability,HARA; first compound 0.06325 µM,0.531
same,relative viability,HARA; first compound 0.2 µM,0.0744
same,relative viability,HCC-44; first compound 0.002 µM,0.663
same,relative viability,HCC-44; first compound 0.006325 µM,0.641
same,relative viability,HCC-44; first compound 0.02 µM,0.62
same,relative viability,HCC-44; first compound 0.06325 µM,0.381
same,relative viability,HCC-44; first compound 0.2 µM,0.12
same,relative viability,LK-2; first compound 0.002 µM,0.569
same,relative viability,LK-2; first compound 0.006325 µM,0.548
same,relative viability,LK-2; first compound 0.02 µM,0.373
same,relative viability,LK-2; first compound 0.06325 µM,0.312
same,relative viability,LK-2; first compound 0.2 µM,0.218
same,relative viability,LU99A; first compound 0.002 µM,0.351
same,relative viability,LU99A; first compound 0.006325 µM,0.36
same,relative viability,LU99A; first compound 0.02 µM,0.226
same,relative viability,LU99A; first compound 0.06325 µM,0.153
same,relative viability,LU99A; first compound 0.2 µM,0.112
same,relative viability,NCI-H1650; first compound 0.002 µM,0.593
same,relative viability,NCI-H1650; first compound 0.006325 µM,0.653
same,relative viability,NCI-H1650; first compound 0.02 µM,0.199
same,relative viability,NCI-H1650; first compound 0.06325 µM,0.129
same,relative viability,NCI-H1650; first compound 0.2 µM,0.106
same,relative viability,NCI-H1734; first compound 0.002 µM,0.519
same,relative viability,NCI-H1734; first compound 0.006325 µM,0.43
same,relative viability,NCI-H1734; first compound 0.02 µM,0.329
same,relative viability,NCI-H1734; first compound 0.06325 µM,0.14
same,relative viability,NCI-H1734; first compound 0.2 µM,0.146
same,relative viability,NCI-H1755; first compound 0.002 µM,0.399
same,relative viability,NCI-H1755; first compound 0.006325 µM,0.372
same,relative viability,NCI-H1755; first compound 0.02 µM,0.351
same,relative viability,NCI-H1755; first compound 0.06325 µM,0.136
same,relative viability,NCI-H1755; first compound 0.2 µM,0.105
same,relative viability,NCI-H1792; first compound 0.002 µM,0.302
same,relative viability,NCI-H1792; first compound 0.006325 µM,0.273
same,relative viability,NCI-H1792; first compound 0.02 µM,0.13
same,relative viability,NCI-H1792; first compound 0.06325 µM,0.124
same,relative viability,NCI-H1792; first compound 0.2 µM,0.0905
same,relative viability,NCI-H1993; first compound 0.002 µM,0.85
same,relative viability,NCI-H1993; first compound 0.006325 µM,0.836
same,relative viability,NCI-H1993; first compound 0.02 µM,0.744
same,relative viability,NCI-H1993; first compound 0.06325 µM,0.787
same,relative viability,NCI-H1993; first compound 0.2 µM,0.643
same,relative viability,NCI-H2405; first compound 0.002 µM,0.514
same,relative viability,NCI-H2405; first compound 0.006325 µM,0.298
same,relative viability,NCI-H2405; first compound 0.02 µM,0.301
same,relative viability,NCI-H2405; first compound 0.06325 µM,0.147
same,relative viability,NCI-H2405; first compound 0.2 µM,0.142
same,relative viability,NCI-H358; first compound 0.002 µM,0.342
same,relative viability,NCI-H358; first compound 0.006325 µM,0.311
same,relative viability,NCI-H358; first compound 0.02 µM,0.222
same,relative viability,NCI-H358; first compound 0.06325 µM,0.133
same,relative viability,NCI-H358; first compound 0.2 µM,0.124
same,relative viability,NCI-H460; first compound 0.002 µM,0.35
same,relative viability,NCI-H460; first compound 0.006325 µM,0.243
same,relative viability,NCI-H460; first compound 0.02 µM,0.372
same,relative viability,NCI-H460; first compound 0.06325 µM,0.116
same,relative viability,NCI-H460; first compound 0.2 µM,0.0892
same,relative viability,NCI-H596; first compound 0.002 µM,0.343
same,relative viability,NCI-H596; first compound 0.006325 µM,0.404
same,relative viability,NCI-H596; first compound 0.06325 µM,0.275
same,relative viability,NCI-H596; first compound 0.2 µM,0.267
same,relative viability,NCI-H647; first compound 0.002 µM,0.511
same,relative viability,NCI-H647; first compound 0.006325 µM,0.439
same,relative viability,NCI-H647; first compound 0.02 µM,0.249
same,relative viability,NCI-H647; first compound 0.06325 µM,0.0858
same,relative viability,NCI-H647; first compound 0.2 µM,0.0845
same,relative viability,RERF-LC-KJ; first compound 0.002 µM,0.665
same,relative viability,RERF-LC-KJ; first compound 0.006325 µM,0.636
same,relative viability,RERF-LC-KJ; first compound 0.02 µM,0.375
same,relative viability,RERF-LC-KJ; first compound 0.06325 µM,0.231
same,relative viability,RERF-LC-KJ; first compound 0.2 µM,0.182
